Laboratory results: ChEMBL document CHEMBL3217425, “Structure-based design, synthesis, and profiling of a -tryptase inhibitor with a spiro-piperidineamide scaffold, benzylamine P1 group, and a substituted indole P4 group” (Medchemcomm, 2011)

Experiments:
[1] = target: T1, SSAO (amine oxidase [copper-containing] 3) (Homo sapiens, UniProt Q16853); experiment: Stability of the compound assessed as human full length SSAO-mediated drug metabolism expressed in CHO cells measured as compound remaining after 20 mins; format: ADME, cell-based; details: CHO cells expressing human full length SSAO, read-out: Stability
T1 sequence (Q16853 whole entry): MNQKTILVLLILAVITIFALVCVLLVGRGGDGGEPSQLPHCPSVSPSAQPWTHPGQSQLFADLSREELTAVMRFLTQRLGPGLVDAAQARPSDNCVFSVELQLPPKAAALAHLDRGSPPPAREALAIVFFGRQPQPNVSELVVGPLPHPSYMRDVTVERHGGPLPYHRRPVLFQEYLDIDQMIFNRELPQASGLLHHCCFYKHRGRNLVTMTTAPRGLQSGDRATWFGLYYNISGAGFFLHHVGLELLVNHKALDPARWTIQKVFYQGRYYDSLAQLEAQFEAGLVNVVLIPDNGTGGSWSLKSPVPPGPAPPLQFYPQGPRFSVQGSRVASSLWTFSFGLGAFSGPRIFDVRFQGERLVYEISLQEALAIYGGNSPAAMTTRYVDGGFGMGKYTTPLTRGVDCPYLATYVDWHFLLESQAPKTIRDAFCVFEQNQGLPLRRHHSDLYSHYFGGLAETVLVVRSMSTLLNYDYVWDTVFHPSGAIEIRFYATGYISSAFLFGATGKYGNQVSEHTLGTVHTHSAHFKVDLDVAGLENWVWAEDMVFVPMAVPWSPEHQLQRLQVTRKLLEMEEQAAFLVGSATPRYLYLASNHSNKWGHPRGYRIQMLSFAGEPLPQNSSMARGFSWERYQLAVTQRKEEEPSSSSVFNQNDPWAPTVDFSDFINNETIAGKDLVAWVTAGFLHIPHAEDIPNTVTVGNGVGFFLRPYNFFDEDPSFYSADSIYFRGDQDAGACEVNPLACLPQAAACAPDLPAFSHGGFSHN

[2] = Drug metabolism in rat liver microsomes after 20 mins; format: ADME; details: read-out: Drug metabolism
[3] = Drug metabolism in human liver microsomes after 20 mins; format: ADME; details: read-out: Drug metabolism
[4] = Drug metabolism in guinea pig liver microsomes after 20 mins; format: ADME, Cavia porcellus; details: read-out: Drug metabolism
hERG (KCNH2) [5] = target: T2, hERG (KCNH2) (Homo sapiens, UniProt Q12809); experiment: Inhibition of human ERG channel expressed in CHO cells at 1 uM; format: cell-based; details: CHO cells expressing human ERG channel
hERG (KCNH2) [6] = target: T2, hERG (KCNH2); experiment: Inhibition of human ERG channel expressed in CHO cells at 10 uM; format: cell-based; details: CHO cells expressing human ERG channel

T2 sequence (Q12809 whole entry): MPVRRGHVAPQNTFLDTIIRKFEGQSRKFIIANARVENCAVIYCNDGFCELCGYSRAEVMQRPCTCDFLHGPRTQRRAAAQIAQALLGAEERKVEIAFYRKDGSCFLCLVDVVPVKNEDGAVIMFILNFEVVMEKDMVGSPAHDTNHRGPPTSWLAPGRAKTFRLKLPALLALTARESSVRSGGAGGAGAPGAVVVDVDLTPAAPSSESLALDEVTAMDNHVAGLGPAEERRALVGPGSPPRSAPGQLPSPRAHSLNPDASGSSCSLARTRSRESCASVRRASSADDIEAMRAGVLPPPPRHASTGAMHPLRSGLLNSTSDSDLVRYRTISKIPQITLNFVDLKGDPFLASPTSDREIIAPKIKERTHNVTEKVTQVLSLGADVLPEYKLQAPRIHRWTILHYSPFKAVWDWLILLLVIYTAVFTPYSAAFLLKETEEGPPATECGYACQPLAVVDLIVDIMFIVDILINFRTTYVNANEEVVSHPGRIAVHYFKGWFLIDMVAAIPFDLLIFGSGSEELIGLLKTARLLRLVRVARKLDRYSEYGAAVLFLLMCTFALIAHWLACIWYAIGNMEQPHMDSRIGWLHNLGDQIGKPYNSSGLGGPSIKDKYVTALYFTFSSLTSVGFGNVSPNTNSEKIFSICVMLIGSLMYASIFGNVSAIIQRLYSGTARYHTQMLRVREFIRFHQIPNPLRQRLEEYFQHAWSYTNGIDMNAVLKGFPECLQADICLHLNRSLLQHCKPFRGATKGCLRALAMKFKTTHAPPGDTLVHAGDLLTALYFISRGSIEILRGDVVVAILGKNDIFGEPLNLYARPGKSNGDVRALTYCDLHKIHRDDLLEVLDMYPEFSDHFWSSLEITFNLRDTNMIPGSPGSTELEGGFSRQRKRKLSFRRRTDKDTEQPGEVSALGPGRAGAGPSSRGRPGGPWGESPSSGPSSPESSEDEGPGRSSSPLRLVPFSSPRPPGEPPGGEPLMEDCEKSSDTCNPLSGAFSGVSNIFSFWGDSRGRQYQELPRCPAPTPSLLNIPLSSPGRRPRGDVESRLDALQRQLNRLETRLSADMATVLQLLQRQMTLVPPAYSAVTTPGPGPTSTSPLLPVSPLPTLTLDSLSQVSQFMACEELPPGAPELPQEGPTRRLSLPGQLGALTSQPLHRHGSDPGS

remaining at 20 min [1] [%]	SMILES	metabolised at 20 min [2] [%]	metabolised at 20 min [3] [%]	metabolised at 20 min [4] [%]	inhibition at 1 µM (hERG (KCNH2) [5]) [%]	inhibition at 10 µM (hERG (KCNH2) [6]) [%]
8	NCc1cccc(C2CCN(C(=O)c3ccc(C#Cc4ccccc4F)o3)CC2)c1	–	–	–	–	–
89	COCCn1cc(C(=O)N2CCC3(CC2)COc2ccc(CN)cc23)c2cccc(F)c21	10	17	12	11	16

SMILES	remaining at 20 min [1] [%]	metabolised at 20 min [2] [%]	metabolised at 20 min [3] [%]	metabolised at 20 min [4] [%]	inhibition at 1 µM (hERG (KCNH2) [5]) [%]	inhibition at 10 µM (hERG (KCNH2) [6]) [%]
COCCn1cc(C(=O)N2CCC(c3cc(CN)ccc3F)CC2)c2cccc(F)c21	78	21	71	38	–	–
